Measurements as given in the Kinase Knowledgebase extract (Sharma et al. 2016).

Molecular target: PIK3CD (Human) (UniProt O00329)
Assay: Assessment of PIK3CD Kinase Activity (Scintillation Proximity Assay)

Chain of PIK3CD (Human) (O00329 whole entry, looked up): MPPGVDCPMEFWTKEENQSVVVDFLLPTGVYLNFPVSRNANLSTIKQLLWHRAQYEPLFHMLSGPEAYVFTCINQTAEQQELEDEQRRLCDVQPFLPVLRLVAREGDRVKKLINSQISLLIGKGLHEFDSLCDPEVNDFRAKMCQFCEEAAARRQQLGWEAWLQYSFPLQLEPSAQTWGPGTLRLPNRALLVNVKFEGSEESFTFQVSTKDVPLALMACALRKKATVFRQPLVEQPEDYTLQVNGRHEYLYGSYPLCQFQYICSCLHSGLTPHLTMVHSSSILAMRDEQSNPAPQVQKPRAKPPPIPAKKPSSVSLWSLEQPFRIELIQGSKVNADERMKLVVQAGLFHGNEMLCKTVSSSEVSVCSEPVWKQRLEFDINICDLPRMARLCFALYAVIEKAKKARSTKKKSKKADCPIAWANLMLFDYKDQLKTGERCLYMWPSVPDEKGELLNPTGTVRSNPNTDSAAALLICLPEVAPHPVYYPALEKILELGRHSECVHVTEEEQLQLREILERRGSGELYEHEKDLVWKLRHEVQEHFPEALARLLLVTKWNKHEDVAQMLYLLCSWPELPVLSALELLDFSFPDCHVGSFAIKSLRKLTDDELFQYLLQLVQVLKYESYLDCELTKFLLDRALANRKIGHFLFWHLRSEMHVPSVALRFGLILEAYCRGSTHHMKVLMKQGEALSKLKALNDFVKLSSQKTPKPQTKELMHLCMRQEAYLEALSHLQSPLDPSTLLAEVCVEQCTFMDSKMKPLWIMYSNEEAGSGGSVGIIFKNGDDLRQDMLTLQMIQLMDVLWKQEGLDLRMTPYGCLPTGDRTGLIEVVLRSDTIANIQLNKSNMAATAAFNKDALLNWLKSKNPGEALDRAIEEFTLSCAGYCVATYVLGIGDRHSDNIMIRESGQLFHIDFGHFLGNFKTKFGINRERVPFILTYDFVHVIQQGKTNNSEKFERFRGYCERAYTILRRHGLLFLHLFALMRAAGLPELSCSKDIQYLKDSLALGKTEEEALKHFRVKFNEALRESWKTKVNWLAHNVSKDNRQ

Row | Structure (SMILES) | IC50 [nM]
1 | CCOc1c(C(C)n2nc(-c3ccc(C(=O)N(C)C)nc3)c3c(N)ncnc32)cc(Cl)c(C)c1-c1ccc(C(=O)N(C)C)nc1 (configuration not stated) | 10 to 50
2 | COc1c(C(C)n2nc(C)c3c(N)ncnc32)cc(Cl)c(C)c1-c1cncc(C(=O)N(C)CCO)c1 (configuration not stated) | ≤ 10
3 | COc1c(C(C)n2ccc(=O)c3c(N)ncnc32)cc(Cl)c(C)c1-c1cccc(C(=O)N(C)C)c1 (configuration not stated) | ≤ 10
4 | CCOc1c(C(C)n2nc(C(F)F)c3c(N)ncnc32)cc(Cl)c(F)c1C1CN(CCO)C1 (configuration not stated) | ≤ 10
5 | COc1c(C(C)n2nc(C(F)F)c3c(N)ncnc32)cc(Cl)c(F)c1C1CN(C)C1 (configuration not stated) | ≤ 10
6 | CNC(=O)[C@H](C)N1CC(c2c(C)c(C#N)cc(C(C)n3nc(C(F)F)c4c(N)ncnc43)c2OC)C1 (some centres not stated) | ≤ 10
7 | COc1c(C(C)n2nc(C)c3c(N)ncnc32)cc(Cl)c(C)c1-c1cncc(C(=O)N(C)C2CC2)c1 (configuration not stated) | ≤ 10
8 | CNC(=O)c1ccc(-c2c(C)c(Cl)cc(C(C)n3nc(C)c4c(N)ncnc43)c2OC)cc1F (configuration not stated) | ≤ 10
9 | CCOc1c(C(C)n2nc(C)c3c(N)ncnc32)cc(Cl)c(F)c1C1CN(CC(F)F)C1 (configuration not stated) | ≤ 10
10 | CNC(=O)[C@@H](C)N1CC(c2c(C)c(C#N)cc(C(C)n3nc(C(F)F)c4c(N)ncnc43)c2OC)C1 (some centres not stated) | ≤ 10
11 | CCOc1c(C(C)n2nc(-c3cnn(CCO)c3)c3c(N)ncnc32)cc(Cl)c(C)c1-c1ccc(C(=O)N(C)C)nc1 (configuration not stated) | ≤ 10
12 | COc1c(C(C)n2nc(C)c3c(N)ncnc32)cc(Cl)c(C)c1-c1cnn(C(C)C(=O)N(C)C)c1 (configuration not stated) | ≤ 10
13 | COc1c(C(C)n2nc(C)c3c(N)ncnc32)cc(Cl)c(C)c1-c1cnc(N)nc1 (configuration not stated) | ≤ 10
14 | COc1c(C(C)n2nc(C)c3c(N)ncnc32)cc(Cl)c(C)c1-c1ccc(C(=O)NCCO)nc1 (configuration not stated) | ≤ 10
15 | COc1c(C(C)n2nc(C)c3c(N)ncnc32)cc(Cl)c(C)c1C1CN(C(=O)c2cn[nH]c2)C1 (configuration not stated) | ≤ 10
16 | CCNC(=O)c1c(C)c(Cl)cc(C(C)n2nc(-c3ccc4cn[nH]c4c3)c3c(N)ncnc32)c1OCC (configuration not stated) | ≤ 10
17 | COc1c(C(C)n2nc(C)c3c(N)ncnc32)cc(Cl)c(C)c1C1CCN(C)CC1 (configuration not stated) | ≤ 10
18 | COc1c(C(C)n2nc(C)c3c(N)ncnc32)cc(Cl)c(C)c1-c1cncnc1 (configuration not stated) | ≤ 10
19 | CCNC(=O)c1c(C)c(Cl)cc(C(C)n2nc(-c3ccc4oc(N)nc4c3)c3c(N)ncnc32)c1OCC (configuration not stated) | ≤ 10
20 | CCNC(=O)c1c(C)c(Cl)cc(C(C)n2nc(-c3ccc4nc(N)sc4c3)c3c(N)ncnc32)c1OCC (configuration not stated) | ≤ 10
21 | COc1c(C(C)n2nc(C(F)F)c3c(N)ncnc32)cc(C#N)c(C)c1C1CN(CC(F)(F)F)C1 (configuration not stated) | ≤ 10

Row | Structure (SMILES) | IC50 [nM]
22 | CNC(=O)[C@@H](C)N1CC(c2c(C)c(Cl)cc(C(C)n3nc(C)c4c(N)ncnc43)c2OC)C1 (some centres not stated) | ≤ 10
23 | CCOc1c(C(C)n2nc(C)c3c(N)ncnc32)cc(Cl)c(C)c1-c1ccnc(C(=O)N(C)CCO)c1 (configuration not stated) | ≤ 10
24 | COc1c(C(C)n2nc(C)c3c(N)ncnc32)cc(Cl)c(C)c1-c1cncc(C(=O)N2CC(C#N)C2)c1 (configuration not stated) | ≤ 10
25 | COc1c(C(C)n2nc(C)c3c(N)ncnc32)cc(Cl)c(C)c1-c1ccc(N)nc1 (configuration not stated) | ≤ 10
26 | CCOc1c(C(C)n2nc(C3CC3)c3c(N)ncnc32)cc(Cl)c(C)c1-c1ccc(C(=O)N(C)C)nc1 (configuration not stated) | ≤ 10
27 | CCOc1c(C(C)n2nc(C)c3c(N)ncnc32)cc(Cl)c(C#N)c1-c1ccc(C2=[N+][N+]=C(C)O2)nc1 (configuration not stated) | ≤ 10
28 | CCOc1c(C(C)n2nc(CO)c3c(N)ncnc32)cc(Cl)c(C)c1-c1ccc(C(=O)N(C)C)nc1 (configuration not stated) | ≤ 10
29 | CCOc1c(C(C)n2nc(C)c3c(N)ncnc32)cc(Cl)c(C)c1-c1cncc(C(=O)N(C)C)c1 (configuration not stated) | ≤ 10
30 | COc1c(C(C)n2nc(-c3cn[nH]c3)c3c(N)ncnc32)cc(Cl)c(C)c1C1CN(CC#N)C1 (configuration not stated) | ≤ 10
31 | CCOc1c(C(C)n2nc(C(F)F)c3c(N)ncnc32)cc(Cl)c(F)c1C1CN(C[C@@H](C)O)C1 (some centres not stated) | ≤ 10
32 | COc1c(C(C)n2ccc(=O)c3c(N)ncnc32)cc(Cl)c(C)c1-c1cccnc1 (configuration not stated) | ≤ 10
33 | CCOc1c(C(C)n2nc(-c3cnn(C)c3)c3c(N)ncnc32)cc(Cl)c(C)c1-c1ccc(C(=O)N(C)C)nc1 (configuration not stated) | ≤ 10
34 | COc1c(C(C)n2nc(C)c3c(N)nccc32)cc(Cl)c(C)c1-c1ccc(C(=O)N(C)C)nc1 (configuration not stated) | 50 to 200
35 | COc1c(C(C)n2ccc(=O)c3c(N)ncnc32)cc(Cl)c(C)c1-c1cccc(S(=O)(=O)N(C)C)c1 (configuration not stated) | ≤ 10
36 | Cc1c(Cl)cc(C(C)n2nc(C)c3c(N)ncnc32)c(OCC(F)F)c1-c1ccc(C(=O)N(C)C)nc1 (configuration not stated) | ≤ 10
37 | CCOc1c(C(C)n2nc(-c3ccc(C(=O)NC)nc3)c3c(N)ncnc32)cc(Cl)c(C)c1-c1ccc(C(=O)N(C)C)nc1 (configuration not stated) | ≤ 10
38 | COc1c(C(C)n2nc(C)c3c(N)ncnc32)cc(Cl)c(C)c1-c1ccnc(C(=O)N(C)CCO)c1 (configuration not stated) | ≤ 10
39 | CCOc1c(C(C)n2ccc(=O)c3c(N)ncnc32)cc(Cl)c(C#N)c1-c1ccc(C(=O)N(C)C)nc1 (configuration not stated) | ≤ 10
40 | CCOc1c(C(C)n2nc(-c3cc[nH]n3)c3c(N)ncnc32)cc(Cl)c(C)c1-c1ccc(C(=O)N(C)C)nc1 (configuration not stated) | ≤ 10
41 | COc1c(C(C)n2ccc(=O)c3c(N)ncnc32)cc(Cl)c(C)c1-c1cncnc1 (configuration not stated) | ≤ 10

Further lines, results first:

Row | IC50 [nM] | Structure (SMILES)
42 | ≤ 10 | COc1c(C(C)n2nc(C)c3c(N)ncnc32)cc(Cl)c(C#N)c1C1CN(C(C)C)C1 (configuration not stated)
43 | ≤ 10 | COc1c(C(C)n2nc(C)c3c(N)ncnc32)cc(Cl)c(C)c1C1CN([C@@H](C)C(O)N(C)C)C1 (some centres not stated)
44 | ≤ 10 | CCC(=O)N1CC(c2c(C)c(Cl)cc(C(C)n3nc(C)c4c(N)ncnc43)c2OC)C1 (configuration not stated)
45 | ≤ 10 | CCOc1c(C(C)n2nc(C)c3c(N)ncnc32)cc(Cl)c(F)c1C1CNC(=O)O1 (configuration not stated)
46 | ≤ 10 | CCOc1c(C(C)n2nc(C)c3c(N)ncnc32)cc(Cl)c(C#N)c1C1CN(C(=O)C(C)(C)O)C1 (configuration not stated)
47 | ≤ 10 | CCOc1c(C(C)n2nc(C)c3c(N)ncnc32)cc(Cl)c(C#N)c1C1CN(C(=O)C(C)(C)C)C1 (configuration not stated)
48 | ≤ 10 | COc1c(C(C)n2nc(C)c3c(N)ncnc32)cc(Cl)c(C)c1C1CN(CC(F)(F)F)C1 (configuration not stated)
49 | ≤ 10 | COc1c(C(C)n2nc(C)c3c(N)ncnc32)cc(Cl)c(C)c1C1CN(CC(C)(C)O)C1 (configuration not stated)
50 | ≤ 10 | CCOc1c(C(C)n2nc(C)c3c(N)ncnc32)cc(Cl)c(C#N)c1C1CN(C)C1 (configuration not stated)
51 | ≤ 10 | COc1c(C(C)n2nc(C)c3c(N)ncnc32)cc(Cl)c(C#N)c1C1CN(C2CCOC2)C1 (configuration not stated)
52 | ≤ 10 | CCOc1c(C(C)n2nc(C)c3c(N)ncnc32)cc(Cl)c(C#N)c1C1CN(C(C)(C)C(=O)NC)C1 (configuration not stated)
53 | ≤ 10 | CCOc1c(C(C)n2nc(C)c3c(N)ncnc32)cc(Cl)c(C)c1C1CN(CCO)C1 (configuration not stated)
54 | ≤ 10 | CCOc1c(C(C)n2nc(C)c3c(N)ncnc32)cc(Cl)c(F)c1C1CN(C[C@@H](C)O)C1 (some centres not stated)
55 | ≤ 10 | CCOc1c(C(C)n2nc(C)c3c(N)ncnc32)cc(Cl)c(C#N)c1N1CC(OC)C1 (configuration not stated)
56 | ≤ 10 | COc1c(C(C)n2nc(C)c3c(N)ncnc32)cc(Cl)c(C#N)c1C1CNC1 (configuration not stated)
57 | ≤ 10 | CCOc1c(C(C)n2nc(C)c3c(N)ncnc32)cc(Cl)c(C)c1C1CN(C(=O)[C@@H](C)O)C1 (some centres not stated)
58 | ≤ 10 | CCOc1c(C(C)n2nc(C)c3c(N)ncnc32)cc(Cl)c(C#N)c1C1CN(C2CCOCC2)C1 (configuration not stated)
59 | ≤ 10 | COc1c(C(C)n2nc(C)c3c(N)ncnc32)cc(Cl)c(C#N)c1C1CN(C2CCOCC2)C1 (configuration not stated)
60 | ≤ 10 | CCOc1c(C(C)n2nc(C)c3c(N)ncnc32)cc(Cl)c(C)c1C1CN(C[C@@H](C)O)C1 (some centres not stated)
61 | ≤ 10 | CCOc1c(C(C)n2nc(C)c3c(N)ncnc32)cc(Cl)c(C#N)c1C1CN(CC#N)C1 (configuration not stated)
62 | ≤ 10 | CCOc1c(C(C)n2nc(C)c3c(N)ncnc32)cc(Cl)c(C#N)c1N1CC(COC)C1 (configuration not stated)
63 | ≤ 10 | CCOc1c(C(C)n2nc(C)c3c(N)ncnc32)cc(Cl)c(C#N)c1C1CN(C[C@@H](C)O)C1 (some centres not stated)
64 | ≤ 10 | CNC(=O)N1CC(c2c(C#N)c(Cl)cc(C(C)n3nc(C)c4c(N)ncnc43)c2OC)C1 (configuration not stated)

Row | IC50 [nM] | Structure (SMILES)
65 | ≤ 10 | COc1c(C(C)n2nc(C)c3c(N)ncnc32)cc(Cl)c(C#N)c1C1CN(CC2CCOC2)C1 (configuration not stated)
66 | ≤ 10 | COc1c(C(C)n2nc(C)c3c(N)ncnc32)cc(Cl)c(C#N)c1-c1cncc(S(C)(=O)=O)c1 (configuration not stated)
67 | ≤ 10 | COc1c(C(C)n2nc(C)c3c(N)ncnc32)cc(Cl)c(C#N)c1C1CN(C[C@@H](C)O)C1 (some centres not stated)
68 | ≤ 10 | COc1c(C(C)n2nc(C)c3c(N)ncnc32)cc(C)c(C#N)c1C1CN(C[C@H](C)O)C1 (some centres not stated)
69 | ≤ 10 | CCOc1c(C(C)n2nc(C)c3c(N)ncnc32)cc(C)c(C#N)c1C1CN(CC(C)(C)O)C1 (configuration not stated)
70 | ≤ 10 | COc1c(C(C)n2nc(C)c3c(N)ncnc32)cc(Cl)c(C)c1C1CN(C(=O)[C@H](C)O)C1 (some centres not stated)
71 | ≤ 10 | CCC(=O)N1CC(c2c(C#N)c(Cl)cc(C(C)n3nc(C)c4c(N)ncnc43)c2OC)C1 (configuration not stated)
72 | ≤ 10 | CCOc1c(C(C)n2nc(C)c3c(N)ncnc32)cc(Cl)c(C#N)c1-c1cncc(C(=O)N(C)C)c1 (configuration not stated)
73 | ≤ 10 | CCOc1c(C(C)n2nc(C)c3c(N)ncnc32)cc(Cl)c(F)c1C1CN(C(C)C)C1 (configuration not stated)
74 | ≤ 10 | CCOc1c(C(C)n2nc(C)c3c(N)ncnc32)cc(C)c(C#N)c1N1CCCC1 (configuration not stated)
75 | ≤ 10 | COC(=O)N1CC(c2c(C#N)c(Cl)cc(C(C)n3nc(C)c4c(N)ncnc43)c2OC)C1 (configuration not stated)
76 | ≤ 10 | CCOc1c(C(C)n2nc(C)c3c(N)ncnc32)cc(Cl)c(C)c1C1CN(CC(C)(C)O)C1 (configuration not stated)
77 | ≤ 10 | COc1c(C(C)n2nc(C)c3c(N)ncnc32)cc(Cl)c(C)c1C1CN(C[C@@H](C)O)C1 (some centres not stated)
78 | ≤ 10 | CCOc1c(C(C)n2nc(C)c3c(N)ncnc32)cc(Cl)c(C#N)c1C1CN(C[C@H](C)O)C1 (some centres not stated)
79 | ≤ 10 | CCOc1c(C(C)n2nc(C)c3c(N)ncnc32)cc(C)c(C#N)c1C1CN(CCO)C1 (configuration not stated)
80 | ≤ 10 | CCOc1c(C(C)n2nc(C)c3c(N)ncnc32)cc(Cl)c(C#N)c1C1CCOC1 (configuration not stated)
81 | ≤ 10 | COc1c(C(C)n2nc(C)c3c(N)ncnc32)cc(Cl)c(C#N)c1C1CN(C(=O)OC(C)C)C1 (configuration not stated)
82 | ≤ 10 | CCOc1c(C(C)n2nc(C)c3c(N)ncnc32)cc(Cl)c(C#N)c1C1CN(C(=O)OC)C1 (configuration not stated)
83 | ≤ 10 | COc1c(C(C)n2nc(C)c3c(N)ncnc32)cc(Cl)c(C#N)c1C1CN(C(=O)C(C)C)C1 (configuration not stated)
84 | ≤ 10 | COc1c(C(C)n2nc(C)c3c(N)ncnc32)cc(Cl)c(C)c1C1CN([C@H](C)CO)C1 (some centres not stated)
85 | ≤ 10 | CCOc1c(C(C)n2nc(C)c3c(N)ncnc32)cc(Cl)c(C)c1-c1cnn(CC(=O)NC)c1 (configuration not stated)
86 | ≤ 10 | CCOc1c(C(C)n2nc(C)c3c(N)ncnc32)cc(Cl)c(C#N)c1-c1ccc(C(=O)N(C)C)nc1 (configuration not stated)
87 | 10 to 50 | COc1c(C(C)n2nc(C)c3c(N)ncnc32)cc(Cl)c(C)c1C1CC1 (configuration not stated)
